Measured values published in US9353084B2, “2-amino 3,5,5-trifluoro-3,4,5,6-tetrahydropyridines as BACE1 inhibitors for treatment of Alzheimer's disease” (H. Lundbeck A/S, priority 2014, dated 2016).
Where two headings read alike, the source gives them in different places.

Experiments:
Aβ40 = experiment: Assessment of Aβ40 levels in rat brain and plasma following BACE1 inhibition (ELISA); format: in vivo; details: 3 hours post dose, vs vehicle
Procedure: (§1) Young adult Male Sprague Dawley rats of approximately 250 g weight were purchased from Charles River and received 0-30 mg/kg of vehicle (10% HP betaCD+1M MeSO4, pH 2.5) or test compounds (dissolved in vehicle) only by oral gavage (p.o). The compounds are dosed at a volume of 5 ml/kg. Cohorts of 5-10 animals were established for each treatment condition.
(§2) At T=180 minutes after initial dosing the animals were stunned and decapitated with a guillotine. Trunk-blood was sampled in EDTA coated tubes after decapitation of the animal. The blood was centrifuged at 2200 G at 4° C. for 15 minutes and the plasma was collected and frozen at −80° C. The blood was aliquoted for Aβ ELISA and DMPK analysis Immediately following sacrifice, the brain was extracted and split into 2 halves. The right hemibrains were snap frozen on dry ice and stored at −80° C. The left half was dissected; with the front forebrain taken for Aβ ELISA and the remainder used for DMPK analysis. These samples were also snap frozen on dry ice and stored at −80° C. until use for analysis.
The cortex samples were thawed slightly on wet ice before they were homogenized with a small volume dispersing instrument (T10 basic ULTRA-TURRAX®) which was set at speed 5 for approximately 5-7 sec. The tissue was processed in a 10 times volume of the weight, for example 100 mg of tissue was homogenized in 1000 μL of Homogenization buffer. Homogenization buffer: 50 ml Milli Q water+[…]+0.2% Diethylamin (DEA)+1 tablet of Complete Protease inhibitor cocktail+1 nM 4-(2-aminoethyl)benzenesulfonyl fluoride hydrochloride irreversible serine protease inhibitor (AEBSF).
After homogenization 450 μL aliquots of the samples are collected into a 1.5 ml Eppendorf tube and placed on wet ice, 0.5% NP-40 (50 ul) was added to all samples and then they were incubated on ice for 30 min. After which all samples were sonicated using an Ultrasonic homogenizer with 20 kHz homogeneous sound (SONOPLUS HD2070, Bandelin Electronic) 10 pulse set at 12-13% power to extract all the Aβ species. The samples were then centrifuged (Ole Dich 157 MPRF Micro centrifuge) at 20000 G for 20 minutes at 4° C. After centrifugation 285 μL of the supernatant was pipetted into 600 μL microtubes tubes and neutralized with 15 μL of 1M Tris-HCL buffer.
WAKO 294-62501 Human/Rat Abeta amyloid (40) kit was used for all ELISA analyses. 30 μL plasma samples or 30 μL of the cortex supernatants generated as described above were placed in 600 μL microtubes tubes on wet ice. To this 30 μL of 8M Urea (AppliChem A1049, 9025) are added to generate a 2-fold dilution. Both plasma and cortex supernatants are incubated on ice for 30 min. Standard rows were prepared from the standard peptide stock provided in the kit and standard diluent containing 1.6M Urea (200 μL 8M Urea+800 μL of standard diluent) and 0.8M Urea (400 μL 8M Urea+3600 μL Standard diluent). A serial 2-fold dilution of Aβ40 from 100 pmol/ml to 0 pmol/L was prepared for the assay.
After incubation with urea, all samples were further diluted by addition of 5 times standard diluent from the Kit. This was done by adding 240 μL Standard Diluent to 60 μL sample/urea mixture, which was then mixed well. 100 μL of each diluted sample was pipetted into designated wells of the ELISA plate in duplicates. The plate was then covered and incubated overnight at 4° C. The following day, the ELISA kit was brought to room temperature before use. The incubated plate was washed 5 times with the 20× washing solution diluted in Milli Q water. 100 μL HRP-conjugate was applied to each well, and the plate was covered and incubates at 4° C. for 1 hr. The wash was repeated again for 5 times. 100 μL 3,3′,5,5′-Tetramethylbenzidine (TMB) solution was applied to each well and the plate was covered and incubated in the dark at room temperature for 30 minutes. […]

[1] = Brain and plasma exposure in rats after oral dosing (DMPK analysis); format: in vivo; details: male, Sprague Dawley, 3 hours post dose, rat, read-out: Brain/Plasma ratio
Procedure: as §1, §2
Compounds 1, 5, 17, 18, and 24 were administered at doses of 10 or 30 mg/kg p.o. and brain and plasma samples were collected at 3 hours post dose and the following exposures and reductions in Aβ40 levels were measured as described above.

human BACE1 = human BACE1 (Homo sapiens (Human), UniProt P56817); experiment: BACE1 binding assay (SPA-based, radioligand displacement); details: pH 4.5, Ki calculated from IC50
Chain of human BACE1 (P56817 46-501): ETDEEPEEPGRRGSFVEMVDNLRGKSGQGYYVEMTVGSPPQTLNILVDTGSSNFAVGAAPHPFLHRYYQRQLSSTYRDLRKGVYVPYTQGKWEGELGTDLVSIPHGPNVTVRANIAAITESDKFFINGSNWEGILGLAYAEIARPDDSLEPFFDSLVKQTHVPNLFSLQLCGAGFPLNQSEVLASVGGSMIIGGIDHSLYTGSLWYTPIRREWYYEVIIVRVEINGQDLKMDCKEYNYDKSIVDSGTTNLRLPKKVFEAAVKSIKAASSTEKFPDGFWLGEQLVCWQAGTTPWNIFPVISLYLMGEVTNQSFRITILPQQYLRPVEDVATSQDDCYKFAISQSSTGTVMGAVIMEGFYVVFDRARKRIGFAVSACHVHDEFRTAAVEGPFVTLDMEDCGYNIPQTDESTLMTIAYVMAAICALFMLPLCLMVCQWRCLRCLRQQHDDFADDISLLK
Procedure: The binding assay was performed as SPA-based assay using a biotinylated form of human BACE1 recombinantly expressed and subsequently purified from Freestyle HEK293 cells. The binding assay was run in a 50 mM sodium acetate buffer, pH 4.5 containing 50 mM NaCl and 0.03% Tween-20 in white clear bottom 384 plates (Corning #3653). 10 nM (final concentration) radioligand ([^3H]—N-((1S,2R)-1-benzyl-3-cyclopropylamino-2-hydroxy-propyl)-5-(methanesulfonyl-methyl-amino)-N—((R)-1-phenyl-ethyl)-isophthalamide) (TRQ11569 purchased from GE Healthcare) was mixed with test compound at a given concentration, 6 nM (final concentration) human BACE1 and 25 μg Streptavidin coated PVT core SPA beads (RPNQ0007, GE Healthcare Life Sciences) in a total volume of 40 μl. Several concentrations of each test compound were tested in the assay for IC50 determination. The plates were incubated for one hour at room temperature and counted in a Wallac Trilux counter. Total and non-specific binding were determined using buffer and 1 μM (final concentration) of the high affinity BACE1 reference inhibitor (S)-6-[3-chloro-5-(5-prop-1-ynyl-pyridin-3-yl)-thiophen-2-yl]-2-imino-3,6-dimethyl-tetrahydro-pyrimidin-4-one, respectively. For each test compound, a IC50 value (the concentration mediating 50% inhibition of the specific binding of the radioligand) was determined from concentration-response curve and used to calculate the Ki from the equation Ki=IC50/(1+L/Kd), where L and Kd are the final concentration of the radioligand used in the assay and the dissociation constant of the radioligand, respectively. The Kd of the radioligand was determined from saturation binding experiments.

| Kp at 3 h ([1]; 30 mg/kg p.o.) | Ki (human BACE1) [nM] | Kp at 3 h ([1]; 10 mg/kg p.o.) | Structure (SMILES) | Aβ40 reduction, Brain Rat (Aβ40; 30 mg/kg p.o.) [%] | Aβ40 reduction, Plasma Rat (Aβ40; 30 mg/kg p.o.) [%] | Aβ40 reduction, Brain Rat (Aβ40; 10 mg/kg p.o.) [%] | Aβ40 reduction, Plasma Rat (Aβ40; 10 mg/kg p.o.) [%] |
| --- | --- | --- | --- | --- | --- | --- | --- |
| 1.48 | 11 |  | COc1ccc(C(=O)Nc2ccc(F)c([C@@]3(C)N=C(N)[C@@](C)(F)CC3(F)F)c2)nc1 [Compound 17, N-(3-((2R,5S)-6-amino-3,3,5-trifluoro-2,5-dimethyl-2,3,4,5-tetrahydropyridin-2-yl)-4-fluorophenyl)-5-methoxypicolinamide] | 63 | 49 |  |  |
| 0.54 | 4.3 | 0.53 | Cc1cc(C#N)cnc1C(=O)Nc1ccc(F)c([C@@]2(C)N=C(N)[C@@](C)(F)CC2(F)F)c1 [Compound 18, N-(3-((2R,5S)-6-amino-3,3,5-trifluoro-2,5-dimethyl-2,3,4,5-tetrahydropyridin-2-yl)-4-fluorophenyl)-5-cyano-3-methylpicolinamide] | 61 | 50 | 66 | 54 |
| 1.2 | 420 | 1.39 | C[C@@]1(F)CC(F)(F)[C@@](C)(c2cc(NC(=O)c3cnc(C(F)F)cn3)ccc2F)N=C1N [Compound 24, N-(3-((2R,5R)-6-amino-3,3,5-trifluoro-2,5-dimethyl-2,3,4,5-tetrahydropyridin-2-yl)-4-fluorophenyl)-5-(difluoromethyl)pyrazine-2-carboxamide] | 49 | 61 | 15 | 28 |
